Legend:
[1] = target: T1, HCV NS3/4A protease complex (Hepatitis C virus genotype 1a, UniProt P27958, C1454S/C1711G); assay: FRET peptide assay to monitor HCV NS3/4A proteolytic activity; type: biochemical; conditions: recombinant NS3/4A protease complex, RET S1 FRET peptide substrate; strain not given
T1 construct: DNA encoding the recombinant HCV NS3/4A protease complex (amino acids 1027 to 1711) for these strains; inferred from pET21b vector and Ni-NTA purification; made in house; host or cells: Escherichia coli BL21 (DE3), pET21b
T1 sequence (P27958 1027-1711 C1454S/C1711G, one chain of several): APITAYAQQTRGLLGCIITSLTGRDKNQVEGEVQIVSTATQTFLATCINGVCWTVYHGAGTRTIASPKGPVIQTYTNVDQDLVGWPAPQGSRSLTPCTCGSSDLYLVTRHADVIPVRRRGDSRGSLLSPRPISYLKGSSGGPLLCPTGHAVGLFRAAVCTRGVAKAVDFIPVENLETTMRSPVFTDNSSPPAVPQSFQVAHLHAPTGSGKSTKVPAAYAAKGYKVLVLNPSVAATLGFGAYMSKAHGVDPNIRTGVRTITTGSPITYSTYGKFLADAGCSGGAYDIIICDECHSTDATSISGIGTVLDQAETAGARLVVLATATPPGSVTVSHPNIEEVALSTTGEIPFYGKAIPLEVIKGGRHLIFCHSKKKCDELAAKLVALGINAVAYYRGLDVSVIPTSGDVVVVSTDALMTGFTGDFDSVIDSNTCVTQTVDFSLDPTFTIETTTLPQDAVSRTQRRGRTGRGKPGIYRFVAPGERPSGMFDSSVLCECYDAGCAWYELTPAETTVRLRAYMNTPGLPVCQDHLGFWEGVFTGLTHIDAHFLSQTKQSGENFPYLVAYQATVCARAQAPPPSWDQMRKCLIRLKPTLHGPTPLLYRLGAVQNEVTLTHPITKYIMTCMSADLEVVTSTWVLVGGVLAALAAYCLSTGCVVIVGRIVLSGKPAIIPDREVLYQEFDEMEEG
Text: HCV NS3 protease complexes, derived from the BMS strain, H77 strain or J4L65 strain, were generated, as described below. These purified recombinant proteins were generated for use in a homogeneous assay (see below) to provide an indication of how effective compounds of the present disclosure would be in inhibiting HCV NS3 proteolytic activity.
The H77 and J4L6S strains were used for production of recombinant NS3/4A protease complexes. DNA encoding the recombinant HCV NS3/4A protease complex (amino acids 1027 to 1711) for these strains was manipulated as described by P. Gallinari et al. (see Gallinari P, Paolini C, Brennan D, Nardi C, Steinkuhler C, De Francesco R. Biochemistry. 38(17):5620-32, (1999)). Briefly, a three-lysine solubilizing tail was added at the 3′-end of the NS4A coding region. The cysteine in the P1 position of the NS4A-NS4B cleavage site (amino acid 1711) was changed to a glycine to avoid the proteolytic cleavage of the lysine tag. Furthermore, a cysteine to serine mutation was introduced by PCR at amino acid position 1454 to prevent the autolytic cleavage in the NS3 helicase domain. […]

[2] = test system: HCV strain 1b replicon in HUH-7 cells; assay: HCV replicon luciferase reporter assay, genotype 1b; type: cell-based; conditions: Hepatitis C virus, Huh-7, 72 h, read-out: 1a/1b EC50 (nM): 1b
Text: An HCV replicon whole cell system was established as described by Lohmann V, Korner F, Koch J, Herian U, Theilmann L, Bartenschlager R., Science 285(5424):110-3 (1999). This system enabled us to evaluate the effects of our HCV Protease compounds on HCV RNA replication. Briefly, using the HCV strain 1b sequence described in the Lohmann paper (Assession number: AJ238799), an HCV cDNA was synthesized by Operon Technologies, Inc. (Alameda, Calif.), and the full-length replicon was then assembled in plasmid pGem9zf(+) (Promega, Madison, Wis.) using standard molecular biology techniques. […]
(§1) The HCV replicon luciferase assay was developed to monitor the inhibitory effects of compounds described in the disclosure on HCV viral replication. […] After 3 days incubation at 37° C., cells were analyzed for Renilla Luciferase activity using the EnduRen as substrate (Promega cat 4E6485). […] The plates were incubated for 2 hrs at 37° C. and then read immediately for 30 seconds on the Viewlux Imager (PerkinElmer) using a luminescence program. […] The fluorescence signal from each well was read, with an excitation wavelength at 525/10 nm and an emission wavelength of 598/10 nm, on the Viewlux Imager.
(§2) The percentage inhibition was calculated using the formula below:
(§3) [formula] The values were graphed and analyzed using XLfit to obtain the EC50 value.

[3] = test system: HCV genotype 1a replicon (H77) in HUH-7 cells; assay: HCV replicon luciferase reporter assay, genotype 1a; type: cell-based; conditions: Hepatitis C virus, Huh-7, 72 h, read-out: 1a/1b EC50 (nM): 1a
Text: A stable HCV genotype 1a replicon cell line was generated with a similar genomic map as described above for the 1b replicon cell line. An additional adaptive substitution at position 1496 (proline to leucine) was also introduced (Lemm J A, Liu M, Rose R E, Fridell R, O′Boyle Ii D R, Colonno R, Gao M. Intervirology. 2005 48(2-3):183-91). The sequence of the H77 infectious clone (see above for details) was used to generate the sub-replicon which also contained the selectable marker G418 and the Renilla luciferase gene.
as §1, §2, §3

SMILES | IC50 [1] [nM] | EC50 [2] [nM] | EC50 [3] [nM]
CC(C)(C)OC(=O)N[C@H](C(=O)N1C[C@]2(c3ccc(-c4ccccc4)cc3)C[C@H]1C(=O)N[C@@]1(C[C@H]1C(F)F)C(=O)NS(=O)(=O)C1(CCCCC/C=C/CS2)CC1)C(C)(C)C [Compound 1] | 2 | 21 | 49
CC(C)(C)OC(=O)N[C@H](C(=O)N1C[C@]2(c3ccc(-c4ccccc4)cc3)C[C@H]1C(=O)N[C@@]1(C[C@H]1C(F)F)C(=O)NS(=O)(=O)C1(CCCCC/C=C\CS2)CC1)C(C)(C)C [Compound 2] | 4 | 33 | 95
